From patent publication US20040009973A1, “Novel potassium channels modulators” (4SC AG, priority 2002, published 2004)

These compounds were tested against T1, BK potassium channel, cloned hSlo (α-hSlo and β-bSlo) in CHO cells (Homo sapiens, UniProt Q12791) (assay: Em-Assay: membrane potential with voltage sensitive dye DiBAC(4)3, fluorescence plate reader). Settings: compound 50 μM; NS004 25 or 50 μM; hSlo transfected CHO cells; change in DiBAC(4)3 fluorescence intensity.
T1 construct: expressed in transfected cells; host or cells: CHO cells, permanently transfected
Format: cell-based
Excerpt: The large conductance, voltage-dependent and Ca^2+-activated potassium channel BK is a potassium selective ion channel and belongs to the subfamily of KCa channels. Four BK alpha-subunits form a functional channel that can be regulated by intracellular Ca^2+ concentration, membrane voltage, and other mechanisms like phosphorylation states or beta subunits. To test the biological activity of the compounds, we applied two different techniques, a fluorescence based assay using a voltage sensitive dye (Em-Assay) as well as exploiting electrophysiological methods.
CHO cells permanently transfected with cloned hSlo (α-hSlo and β-bSlo), yielding typical BK potassium currents (Zhou et al., Pflügers Arch., 436: 725-734 (1998), were used for the evaluation of compound activity. Activation or inhibition of BK channels in these cells leads to a change of the electrochemical gradient causing a hyperpolarized or depolarised membrane potential, respectively.
To determine changes in the membrane potential of the cells we used the voltage sensitive dye DiBAC(4)3 (Molecular Probes) in a kinetic assay system using a fluorescent plate reader (Manning and Sontheimer, J. Neurosci, Meth., 91: 73-81 (1999). The anionic bis-oxonol DiBAC(4)3 is a voltage sensitive dye which partitions from the extracellular environment into the cell where it reversibly binds to intracellular proteins, a kinetic process depending on the membrane potential of the cell. At depolarised potentials (i.e. at a reduced K^+ efflux due to blocked K^+ channels) the dye accumulates in the cell leading to an increased fluorescence intensity, due to its increased fluorescence if bound to cellular proteins. At hyperpolarized potentials (i.e. at an increased K^+ efflux due to the opening of K^+ channels), the dye partitions out of the cell causing a decreased fluorescence intensity.
hSlo transfected CHO cells where maintained in DMEM supplemented with 10% FCS, 250 μg/ml Geneticin, 100 μg/ml Hygromycin, 1×HT-Supplement, and 1×Non-essential Amino Acids and cultured in a humidified CO2 incubator. After trypsination, cells where plated with a density of 5×10^4 cells per well on a clear 96-well plate and incubated for 24 h. Cells where washed once with PBS, once with PBS containing 20 mM HEPES (adjusted to pH 7.4 with NaOH) and 2 μM DIBAC(4)3 (DPBS-DiBAC solution). 180 μl of the dPBS-DiBAC solution was then added to the cells and the plate incubated for 30-60 min at 37° C. During this time the dye could partition into the cells and reach a certain steady-state distribution, depending on the resting membrane potential. Test and reference compounds were stored as DMSO stock solutions and diluted in dPBS-DiBAC solution to the desired concentration.
Fluorescence intensity (Ex.: 485 nm/Em.: 520 nm) of each well was detected in the plate reader (Fluostar, BMG) every 60 seconds. After recording the baseline fluorescence for 7 minutes, 20 μl test—and reference compounds were added and the fluorescence intensity was detected for additional 15 minutes. Background was subtracted, data values were normalized and expressed as a change in fluorescence intensity against time. The change in fluorescence intensity caused by the test compounds was evaluated, compared to the effect of the reference compound NS004, and the ratio was determined (see Table I).

T1 sequence (Q12791 1-1178 isoform Q12791-5): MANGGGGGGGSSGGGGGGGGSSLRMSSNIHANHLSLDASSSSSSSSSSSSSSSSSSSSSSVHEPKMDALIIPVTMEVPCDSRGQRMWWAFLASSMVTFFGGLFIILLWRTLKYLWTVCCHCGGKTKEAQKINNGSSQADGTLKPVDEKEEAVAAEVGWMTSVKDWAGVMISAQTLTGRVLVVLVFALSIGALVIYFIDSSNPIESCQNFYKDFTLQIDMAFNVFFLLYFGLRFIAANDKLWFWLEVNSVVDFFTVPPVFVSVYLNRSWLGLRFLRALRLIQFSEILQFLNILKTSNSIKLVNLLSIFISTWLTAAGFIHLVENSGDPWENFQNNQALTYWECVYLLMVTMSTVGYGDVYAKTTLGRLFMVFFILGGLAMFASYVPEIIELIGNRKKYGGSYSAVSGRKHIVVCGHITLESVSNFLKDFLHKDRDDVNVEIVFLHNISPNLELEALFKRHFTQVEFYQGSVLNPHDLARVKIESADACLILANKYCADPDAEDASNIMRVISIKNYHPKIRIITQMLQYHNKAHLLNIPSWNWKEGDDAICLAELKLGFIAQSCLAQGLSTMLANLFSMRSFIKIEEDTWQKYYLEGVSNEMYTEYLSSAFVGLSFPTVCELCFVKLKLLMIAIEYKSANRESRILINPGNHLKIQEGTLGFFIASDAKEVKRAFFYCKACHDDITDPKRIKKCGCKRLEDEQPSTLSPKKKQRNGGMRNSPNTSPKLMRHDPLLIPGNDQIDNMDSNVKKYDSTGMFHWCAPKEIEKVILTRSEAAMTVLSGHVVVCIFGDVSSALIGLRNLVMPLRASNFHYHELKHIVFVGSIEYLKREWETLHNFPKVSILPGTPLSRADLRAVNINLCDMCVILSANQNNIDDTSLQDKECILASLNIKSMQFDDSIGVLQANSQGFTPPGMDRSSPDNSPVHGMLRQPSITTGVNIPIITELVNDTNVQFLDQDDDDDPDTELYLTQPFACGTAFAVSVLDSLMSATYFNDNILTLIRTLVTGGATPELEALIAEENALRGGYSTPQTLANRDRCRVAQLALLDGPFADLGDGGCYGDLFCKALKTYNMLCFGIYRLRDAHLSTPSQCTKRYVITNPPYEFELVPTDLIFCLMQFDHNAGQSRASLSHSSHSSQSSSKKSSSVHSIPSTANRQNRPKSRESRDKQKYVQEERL
T1 sequence (Q28067 2-191 partner limits assumed): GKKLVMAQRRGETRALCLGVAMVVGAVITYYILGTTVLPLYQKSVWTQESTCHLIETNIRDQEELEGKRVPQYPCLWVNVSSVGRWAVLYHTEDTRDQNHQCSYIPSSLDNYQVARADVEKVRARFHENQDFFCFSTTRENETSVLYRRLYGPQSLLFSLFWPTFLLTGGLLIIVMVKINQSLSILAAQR

**Q.** With `O=[N+]([O-])c1ccc(CNc2cc(NCc3ccc([N+](=O)[O-])cc3)cc(C(F)(F)F)c2)cc1` [Compound 1] as the compound, how does the “Em effect: ratio of the compound effect compared to the maximal effect of NS004” value (“Em effect: ratio of the compound effect” below) read?
**A.** + (0-1 = +)

**Q.** `FC(F)(F)c1cc(NCc2ccc(Br)cc2)cc(NCc2ccc(Br)cc2)c1` [Compound 2] was tested. Which “Em effect: ratio of the compound effect” value did it give?
**A.** + (0-1 = +)

**Q.** Which “Em effect: ratio of the compound effect” value does the source give for `FC(F)(F)c1cc(NCc2cccc(Cl)c2)cc(NCc2cccc(Cl)c2)c1` [Compound 3] here?
**A.** + (0-1 = +)

**Q.** With `FC(F)(F)c1cc(NCc2ccc3ccccc3c2)cc(NCc2ccc3ccccc3c2)c1` [Compound 4] as the compound, how does the “Em effect: ratio of the compound effect” value read?
**A.** + (0-1 = +)

**Q.** For `FC(F)(F)c1cc(NCc2ccc(Br)cc2)cc(NCc2cccc(Cl)c2)c1` [Compound 5], which “Em effect: ratio of the compound effect” value is on record?
**A.** ++ (>1-1.5 = ++)

**Q.** Which “Em effect: ratio of the compound effect” value does the source give for `O=[N+]([O-])c1ccc(CNc2cc(NCc3ccc4ccccc4c3)cc(C(F)(F)F)c2)cc1` [Compound 8] here?
**A.** + (0-1 = +)

**Q.** For `c1ccc(CNc2cccc(NCc3ccccc3)c2)cc1` [Compound 9, N,N′-Dibenzylbenzene-1,3-diamine], which “Em effect: ratio of the compound effect” value is on record?
**A.** + (0-1 = +)

**Q.** `O=[N+]([O-])c1ccc(CNc2cccc(NCc3ccc([N+](=O)[O-])cc3)c2)cc1` [Compound 10] was tested. Which “Em effect: ratio of the compound effect” value did it give?
**A.** + (0-1 = +)

**Q.** With `Cc1cc(NCc2ccc3ccccc3c2)ccc1NCc1ccc2ccccc2c1` [Compound 16] as the compound, how does the “Em effect: ratio of the compound effect” value read?
**A.** + (0-1 = +)

**Q.** Which “Em effect: ratio of the compound effect” value does the source give for `Cc1cc(NCc2cccc(Cl)c2)ccc1NCc1cccc(Cl)c1` [Compound 17] here?
**A.** + (0-1 = +)

**Q.** Which “Em effect: ratio of the compound effect” value does the source give for `Cc1cc(NCc2ccc(Br)cc2)ccc1NCc1ccc(Br)cc1` [Compound 18] here?
**A.** + (0-1 = +)

**Q.** Which “Em effect: ratio of the compound effect” value does the source give for `Clc1cc(NCc2ccc(Br)cc2)ccc1NCc1ccccc1` [Compound 19] here?
**A.** + (0-1 = +)

**Q.** How did the “Em effect: ratio of the compound effect” value turn out when `Clc1cccc(CNc2ccc(NCc3ccccc3)c(Cl)c2)c1` [Compound 20, N′-Benzyl-2-chloro-N^4-(3-chlorobenzyl)-benzene-1,4-diamine] was run?
**A.** + (0-1 = +)

**Q.** `Clc1cccc(CNc2ccc(NCc3ccc(Br)cc3)c(Cl)c2)c1` [Compound 21, N^1-(4-Bromobenzyl)-2-chloro-N^4-(3-chlorobenzyl)-benzene-1,4-diamine] was tested. Which “Em effect: ratio of the compound effect” value did it give?
**A.** + (0-1 = +)

**Q.** With `Clc1cccc(CNc2ccc(NCc3ccc4ccccc4c3)c(Cl)c2)c1` [Compound 22] as the compound, how does the “Em effect: ratio of the compound effect” value read?
**A.** + (0-1 = +)

**Q.** For `O=[N+]([O-])c1ccc(CNc2ccc(NCc3ccc(Br)cc3)cc2Cl)cc1` [Compound 23], which “Em effect: ratio of the compound effect” value is on record?
**A.** + (0-1 = +)

**Q.** With `O=[N+]([O-])c1ccc(CNc2ccc(NCc3cccc(Cl)c3)cc2Cl)cc1` [Compound 24] as the compound, how does the “Em effect: ratio of the compound effect” value read?
**A.** + (0-1 = +)

**Q.** With `O=[N+]([O-])c1ccc(CNc2ccc(NCc3ccc4ccccc4c3)cc2Cl)cc1` [Compound 25] as the compound, how does the “Em effect: ratio of the compound effect” value read?
**A.** + (0-1 = +)

**Q.** `Fc1ccc(CNc2cccc(NCc3ccc(F)cc3)c2)cc1` [Compound 26, N,N′-bis-(4-fluorobenzyl)-benzene-1,3-diamine] was tested. Which “Em effect: ratio of the compound effect” value did it give?
**A.** + (0-1 = +)

**Q.** How did the “Em effect: ratio of the compound effect” value turn out when `Fc1cc(F)cc(CNc2cccc(NCc3cc(F)cc(F)c3)c2)c1` [Compound 27, N,N′-bis-(3,5-difluorobenzyl)-benzene-1,3-diamine] was run?
**A.** ++ (>1-1.5 = ++)

**Q.** `Fc1ccc(CNc2cccc(NCc3ccc(F)cc3F)c2)c(F)c1` [Compound 28, N,N′-bis-(2,4-difluorobenzyl)-benzene-1,3-diamine] was tested. Which “Em effect: ratio of the compound effect” value did it give?
**A.** ++ (>1-1.5 = ++)

**Q.** How did the “Em effect: ratio of the compound effect” value turn out when `Fc1cccc(Cl)c1CNc1cccc(NCc2c(F)cccc2Cl)c1` [Compound 29] was run?
**A.** + (0-1 = +)

**Q.** `N#Cc1ccccc1-c1ccc(CNc2cccc(NCc3ccc(-c4ccccc4C#N)cc3)c2)cc1` [Compound 30] was tested. Which “Em effect: ratio of the compound effect” value did it give?
**A.** + (0-1 = +)
